Literature values in patent US10758479B2, “Galenical form for the administration of active ingredients by transmucous means” (priority 2006, dated 2020).
Values belong to the compound of their own block, whether it stands above or below them.

Columns and labels:
[1] = nasal, per-mucous path

residual bioavailability (administered via the digestive tract): less than 14 % of the administered dose
Structure (SMILES): CNS(=O)(=O)Cc1ccc2[nH]cc(CCN(C)C)c2c1 [Sumatriptan]
period of action (administered enterally): about two

Structure (SMILES): CN(C)C(=O)C(CCN1CCC(O)(c2ccc(Cl)cc2)CC1)(c1ccccc1)c1ccccc1 [loperamide, Loperamide]
portion of the effectively bioavailable dose (in the 2 mg administered by the digestive tract): ≤ 0.25 mg

mean bioavailability [1]: less than 25 % of the administered dose
Structure (SMILES): C[C@]12CC[C@@H]3c4ccc(O)cc4CC[C@H]3[C@@H]1CC[C@@H]2O [estradiol]
